Experiments:
[1] = tested on: HUES8-derived treated cells grafted under the kidney capsule; experiment: Kidney capsule implantation of treated cells in CD1-nude mice; type: in vivo, mouse
Protocol: After 4 days treatment with 300 nM ILV or 300 nM ILV+ 50 ng/ml FGF10, the cells were washed with DPBS for 3 times and treated with 1 mg/ml dispase for 5 min at 37° C. Then, the cells were lifted with the help of cell scraper, collected by centrifugation and resuspended in 50 μl DMEM supplemented 1×B27. About 40 μl (˜2×10^6 cells) of cell clumps were implanted into the left kidney of xylazine anesthetized CD1-nude mice. Two mice were prepared for each sample. Twelve weeks later, the left kidneys were dissected and fixed in 4% paraformaldehyde for 4 hours at 4° C. and processed by standard techniques to generate 15 micrometer cryosections for antibody staining. The antibodies were used as the same condition as immunocytochemistry. Fluorescent images were acquired on an inverted Zeiss LSM 510 confocal microscope.
To further assess the developmental competence of chemically-treated cells, the cells were transplanted under the kidney capsule of nude mice, an assay used by others to observe pancreatic differentiation in vivo (Korsgren et al., 1991; Movassat et al., 2002). […] Additionally, all insulin^+ cells express c-peptide. In contrast, no insulin^+ cells were detected in the mice injected with DMSO-treated population. […]

[2] = tested on: mouse ESC-derived definitive endoderm with Pdx1-GFP reporter; experiment: Pancreatic differentiation of mESC-derived definitive endoderm (Pdx1-GFP reporter); type: cell-based; settings: 300 nM ILV
Protocol: Mouse embryonic stem cells (mESCs) with Pdx1-GFP reporter are routinely cultured on irradiated CF-1 MEF feeder cells in KnockOut DMEM (Invitrogen) supplemented with 15% FBS (Hyclone), 2 mM L-Glu, 1.1 mM 2-mercaptoethanol, 1 mM nonessential amino acids, 1×PS and 10^3 unit LIF (Chemicon). Cells are passaged at the ratio of 1:12 every 3 days by using 0.25% trypsin-EDTA (Invitrogen).
To generate a definitive endoderm population, mESCs were plated on gelatin-coated surface at 2500 cell/cm^2 after depletion of MEF feeder cells. Then, the cells were treated with 1000 ng/ml recombinant mouse Nodal (R&D systems) in A-RPMI supplemented with 1×L-Glu, 1×L-PS and 0.2% FBS for 5 days. […]
Total RNAs were extracted with the RNeasy Mini Kit (Qiagen) and reverse-transcribed using SuperScript III RT-PCR system (Invitrogen) according to the manufacturer's protocol. One microliter of cDNA sample was PCR amplified with QuantiFast SYBR Green PCR Kit (Qiagen) and analyzed with DNA engine Opticon2 (MJ Research).
To determine whether ILV functions on other species, the effect of ILV on a population of mouse ESCs (mESCs) that have been induced to form definitive endoderm was examined. […] The increase of Pdx1 expression can be further confirmed with immunostaining (FIG. 3b) and quantitative RT-PCR (qRT-PCR, FIG. 3c). […]

[3] = tested on: HUES8 cells; experiment: Differentiation of HUES8 cells to definitive endoderm (Sox17 immunostaining); type: cell-based, human; settings: 300 nM ILV, 3 days, in the presence or absence of Wnt3a/Activin
Protocol: ILV was next tested at different steps of the hESC differentiation process (see FIG. 1a). ILV was tested on the differentiation of HUES8 cells to definitive endoderm population, which was assessed by immunostaining with Sox17 antibody.
(§1) Secondly, ILV was examined on the definitive endoderm population containing 70% Sox17^+ cells derived from HUES8 by Wnt3a/Activin treatment (D'Amour et al., 2006). […] Thus, ILV functions by inducing pancreatic specification of hESC-derived definitive endoderm population.

[4] = tested on: HUES8-derived definitive endoderm population; experiment: Pancreatic specification of the hESC-derived definitive endoderm population (Pdx1+ cells); type: cell-based, human; settings: definitive endoderm population with 70% Sox17+ cells, 4 days; 300 nM ILV, 50 ng/ml FGF10
Protocol: FIG. 6c are results showing that ILV directs the specification of definitive endoderm population toward pancreatic lineage (definitive endoderm population was derived from HUES8 after 1 day treatment with 25 ng/ml Wnt3a and 100 ng/ml Activin A for 1 day and 100 ng/ml Activin A for additional 2 days; then, the definitive endoderm population was treated with 300 nM ILV or 300 nM ILV+50 ng/ml FGF10 for additional 4 days);
as §1

## (−)-Indolactam V [ILV]
[1]; after twelve weeks
  teratoma: no evidence for teratoma was detected
[1]; cells treated 4 days, implanted in left kidney of CD1-nude mice, twelve weeks
  endocrine and exocrine markers in grafts: contained cell clusters that expressed endocrine markers, including insulin and c-peptide, and an exocrine marker, amylase
[2]; 6 days
  percentage of GFP+ cells: 50.0±6.1%
[2]; qRT-PCR
  expression of mRNAs of pancreatic markers (Pdx1, Cdcp1, Ptfla, HNF6, FOXA2, Nkx2.2): increase
[3]
  differentiation to definitive endoderm (Sox17) versus DMSO control: no detectable difference
[4]
  Pdx1+ cells: 21.5±2.4%

From patent US9157062B2, “Compositions and methods for promoting the generation of PDX1+ pancreatic cells” (President and Fellows of Harvard College, priority 2008, dated 2015)
